Drawing on US20230203043A1, “NOVEL IMIDAZOPYRAZINE DERIVATIVES” (Hoffmann-La Roche Inc., priority 2020, published 2023), this text covers IC90 for nine compounds.

For orientation: IC90 means the point of the concentration-response curve where the effect stands at 90%.

Counter-ions that a name gives are not always drawn.

For one test, the system named is Acinetobacter baumannii ATCC17961. Put plainly: Antimicrobial susceptibility testing: 90% growth inhibitory concentration (IC90) determination in Iso-Sensitest broth, OD600 growth. The test is classed as cell-based. Conditions: Acinetobacter baumannii, ATCC17961, 16 h, read-out: A. baumannii ATCC 17961 IC90 (uM), strain ATCC 17961, OD600 growth over 16 h. In short, it runs like this:
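Serial twofold dilution, 10 points, e.g. 50–0.097 μM final; ~5×10^(5) CFU/ml; 35±2° C, 16 h; kinetic OD600 every 20 min; IC90 from log-phase inhibition.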
`N#CCn1cc(-c2cnc3c(Nc4ccc(C(=O)N5CCN(C(=O)[C@H]6CC[C@H](N)C6)CC5)c(Cl)c4)nccn23)c(C(F)(F)F)n1` [Example 582, 2-(4-(8-((4-(4-((1S,3S)-3-aminocyclopentane-1-carbonyl)piperazine-1-carbonyl)-3-chlorophenyl)amino)imidazo[1,2-a]pyrazin-3-yl)-3-(trifluoromethyl)-1H-pyrazol-1-yl) acetonitrile formate]: the IC90 is 0.232 µM.

As to `Cc1cc(Cn2cc(-c3cnc4c(Nc5ccc(C(=O)N6CCNCC6)c(Cl)c5)nccn34)c(C(F)(F)F)n2)nn1C` [Example 185, [2-chloro-4-[[3-[1-[(1,5-dimethylpyrazol-3-yl)methyl]-3-(trifluoromethyl)pyrazol-4-yl]imidazo[1,2-a]pyrazin-8-yl]amino]phenyl]-piperazin-1-ylmethanone formate], the IC90 was determined as 0.65 µM.

With `O=C(c1ccc(Nc2nccn3c(-c4c[nH]nc4C(F)(F)F)cnc23)cc1Cl)N1CCN(C(=O)C2(O)CCNCC2)CC1` [Example 449, [2-chloro-4-[[3-[3-(trifluoromethyl)-1H-pyrazol-4-yl]imidazo[1,2-a]pyrazin-8-yl]amino]phenyl]-[4-(4-hydroxypiperidine-4-carbonyl)piperazin-1-yl]methanone formate], the IC90 was determined as 0.301 µM.

With `CCc1cc(Nc2nccn3c(-c4cn(CC(F)F)nc4C(F)(F)F)cnc23)ccc1C(=O)NCC(=O)N1CCCC1CN` (stereo not drawn) [Example 528, N-[2-[2-(aminomethyl)pyrrolidin-1-yl]-2-oxo-ethyl]-4-[[3-[1-(2,2-difluoroethyl)-3-(trifluoromethyl)pyrazol-4-yl]imidazo[1,2-a]pyrazin-8-yl]amino]-2-ethyl-benzamide formate], the concentration for an effect of 90% (IC90) was 0.243 µM.

As for `COCCn1cc(-c2cnc3c(Nc4ccc(C(=O)N5CCN(C(=O)N[C@@H]6CCNC6)CC5)c(Cl)c4)nccn23)c(C(F)(F)F)n1` [Example 296, 4-[2-chloro-4-[[3-[1-(2-methoxyethyl)-3-(trifluoromethyl)pyrazol-4-yl]imidazo[1,2-a]pyrazin-8-yl]amino]benzoyl]-N-[(3R)-pyrrolidin-3-yl]piperazine-1-carboxamide formate], the concentration for an effect of 90% (IC90) came out at 0.491 µM.

The test is the same for the next values; noted with them: Acinetobacter baumannii, ATCC17961, 16 h, strain ATCC 17961, OD600 growth over 16 h, read-out: A. baumannii ATCC 17961 IC90.
On to `CCc1cc(Nc2nccn3c(-c4c[nH]nc4C(F)(F)F)cnc23)ccc1C(=O)NCCCNC(=O)[C@H]1C[C@@H](N)C1` [Example 531, N-(3-((1s,3s)-3-aminocyclobutane-1-carboxamido)propyl)-2-ethyl-4-((3-(3-(trifluoromethyl)-1H-pyrazol-4-yl)imidazo [1,2-a]pyrazin-8-yl)amino)benzamide formate], for which the IC90 was found to be 0.299 µM.

In the case of `C#CCn1cc(-c2cnc3c(Nc4ccc(C(=O)N5CCN(C(=O)[C@H]6C[C@H](N)C6)CC5)c(CC)c4)nccn23)c(C(F)F)n1` [Example 734, (4-((1r,3r)-3-aminocyclobutane-1-earbonyl)piperazin-1-yl)(4-((3-(3-(difluoromethyl)-1-(prop-2-yn-1-yl)-1H-pyrazol-4-yl)imidazo[1,2-a]pyrazin-8-yl)amino)-2-ethylphenyl)methanone], the IC90 came out at 0.489 µM.

In the case of `Cc1cc(Nc2nccn3c(-c4cn(CC(F)F)nc4C(F)(F)F)cnc23)cc(F)c1C(=O)N[C@H](C)CNC(=O)CN` [Example 673, (R)-N-(1-(2-aminoacetamido)propan-2-yl)-4-((3-(1-(2,2-difluoroethyl)-3-(trifluoromethyl)-1H-pyrazol-4-yl)imidazo[1,2-a]pyrazin-8-yl)amino)-2-fluoro-6-methylbenzamide], the 90% effect concentration (IC90) was 0.314 µM.

On to `C#CCNCCCNC(=O)c1c(C)cc(Nc2nccn3c(-c4cn(CC#C)nc4C(F)(F)F)cnc23)cc1F` [Example 72, 2-fluoro-6-methyl-N-[3-(prop-2-ynylamino)propyl]-4-[[3-[1-prop-2-ynyl-3-(trifluoromethyl)pyrazol-4-yl]imidazo[1,2-a]pyrazin-8-yl]amino]benzamide], for which the concentration for an effect of 90% (IC90) was 0.599 µM.
